Results from US4368194A, “Pharmacologically active amine boranes” (The United States of America as represented by the …, priority 1981, dated 1983).
Read-outs that look alike come from different tables or passages of the source.

Tests used:
CF1 male mice = assay: Writhing reflex (acetic acid); type: in vivo; settings: for Writhing Reflex: 20 mg/kg intraperitoneally, mice
Procedure: CF1 male mice were administered test drugs at 20 mg/kg intraperitoneally 20 min (see Hendershat et al., J. Pharmacol Exp. Ther. 125, 237 1959) prior to the administration of 0.5 ml of 0.6% acetic acid (Vingar et al., European J. PHarmacol, 37, 23 1976). After 5 min the number of stretches, characterized by repeated contractures of the abdominal musculature accompanied by extension of the hind limbs, was counted for the next 10 min. The control mice had 78 stretch reflexes per 10 min.

liver mitochondria [1] = assay: Oxidative phosphorylation, succinate as substrate; type: biochemical, rats; settings: 5 μmoles; for Oxidative Phosphorylation Succinate State 3: ADP stimulated respiration; for Oxidative Phosphorylation Succinate State 4: basal respiration
Procedure: (§1) Basal and adenosine diphosphate stimulated respiration on 10% liver homogenates was measured using succinate or αketoglutarate as substrate. See Glatt, et al., supra. The reaction vessel contained sucrose 55μ moles, KCl 22μ moles, K2 HPO4 22μ moles, test compounds at 5μ moles in 1% CMC and sodium succinate 90μ moles or αketoglutarate 60μ moles in a total volume of 1.8 ml. […] The rate of respiration was calculated at μl of O2 consumed/hr/mg wet weight of liver.

Cathepsin [2] = assay: Lysosomal free cathepsin activity, liver homogenate; type: biochemical, rats; settings: 5 μmoles; for Liver % Free Cathepsin Activity, pH5: in vitro, 20 min
Procedure: (§2) Lysosomal enzymatic assays - Sprague Dawley rats (about 160 g) were sacrificed, the liver excised, and a 10% homogenate (4x) in 0.25 M sucrose and 0.001 M (ethylenedinitrilo) tetra acetic acid, ph 7.2 was prepared.
(§3) Acid phosphatase activity (Gianetto et al., Biochem J., 59, 433 1955) was carried out by incubating with 0.1 Mβ-glycerol phosphate in 0.1 M acetate, pH 5.0 with 5 μmoles of test drugs in 1% carboxymethylcellulose (CMC) for 20 min with liver homogenate and 60 min with resuspended PMNs. Lysosome enzymes were released by 0.02% alkyl phenoxy polyethoxy ethanol-100 to obtain the total enzymatic activity. The reaction was stopped with 10% trichloroacetic acid and the solution centrifuged. Aliquots of the supernatant were assayed for inorganic phophate content by the method of Chen et al., Anal Chem., 28, 1756 (1956). Percent free acid phosphatase was calculated. Cathepsin activity was determined in an analagous manner except the substrate used was 2% azocasein (Schleuning et al., Methods in Enzymology, XLV, 330 1976) in 0.1 M acetate buffer pH 5.0. The supernatant was assayed for acid soluble peptide fragments at 366 nm. Percent free cathepsin activity was calculated.

liver mitochondria [3] = assay: Oxidative phosphorylation, α-ketoglutarate as substrate; type: biochemical, rats; settings: 5 μmoles; for Oxidative Phosphorylation α Ketoglutarate State 3: ADP stimulated respiration; for Oxidative Phosphorylation α Ketoglutarate State 4: basal respiration
Procedure: as §1

Cathepsin [4] = assay: Lysosomal free cathepsin activity, PMNs; type: cell-based; settings: 5 μmoles; for PMNs % Free Cathespin Activity, pH5: in vitro, 60 min
Procedure: (§4) Polymorphonuclear neutrophils (PMNs) were collected from the peritoneal cavity four hr after the injection of 35 ml of 0.5% oyster glycogen in isotonic saline (Orange et al., J. Exp. Med., 127, 767 1968). The PMNs were centrifuged down at 800 g for 20 min, washed, and resuspended in minumen essential medium (MEM) with 10% fetal calf serum pH 7.4.
as §3

Acid phosphatase [5] = assay: Lysosomal free acid phosphatase activity, liver homogenate; type: biochemical, rats; settings: 5 μmoles, in vitro; 20 min
Procedure: as §2, §3

Acid phosphatase [6] = assay: Lysosomal free acid phosphatase activity, PMNs; type: cell-based; settings: 5 μmoles, in vitro; 60 min
Procedure: as §4, §3

[7] = biological target: T1, prostaglandin synthetase from beef seminal vesicle (Bos taurus, UniProt O62664); assay: Prostaglandin synthetase activity; type: biochemical; settings: 10^-6 M; for activity at 1 µM: 1 h, read-out: Prostaglandin Synthesis; for inhibition at 1 µM: read-out: inhibition of prostaglandin synthesis
T1 construct: purchased; host or cells: beef seminal vesicle
T1 sequence (O62664 25-600): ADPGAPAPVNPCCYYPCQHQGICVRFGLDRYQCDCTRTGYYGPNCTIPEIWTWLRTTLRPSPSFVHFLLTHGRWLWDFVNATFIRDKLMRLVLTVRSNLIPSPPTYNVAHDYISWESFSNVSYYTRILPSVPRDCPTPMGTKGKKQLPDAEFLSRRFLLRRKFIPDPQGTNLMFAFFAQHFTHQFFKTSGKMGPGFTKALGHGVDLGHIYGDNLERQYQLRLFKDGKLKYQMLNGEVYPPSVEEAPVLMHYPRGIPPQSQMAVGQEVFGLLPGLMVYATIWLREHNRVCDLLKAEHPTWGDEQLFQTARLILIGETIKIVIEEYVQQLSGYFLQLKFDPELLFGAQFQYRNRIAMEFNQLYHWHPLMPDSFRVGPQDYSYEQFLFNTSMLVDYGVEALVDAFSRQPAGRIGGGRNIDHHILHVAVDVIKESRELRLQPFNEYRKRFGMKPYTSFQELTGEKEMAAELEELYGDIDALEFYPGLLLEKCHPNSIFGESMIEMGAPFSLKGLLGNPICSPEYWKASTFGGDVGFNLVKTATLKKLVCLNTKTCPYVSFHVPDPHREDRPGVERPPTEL
Procedure: After 1 hr at 37° C. the reaction was stopped with 1 N HCl and extracted with ethyl ether and evaporated. […] The plates were dried and developed in iodine vapor and with the use of prostaglandin standards the appropriate areas were scraped and counted for ^3 H content. Indometacin was used as a standard at 10^-4 M concentration. Test drugs were used at 10^-6 M.

in vivo = settings: mouse
cAMP levels in PMNs = assay: Cyclic-3',5'-adenosine monophosphate levels (cAMP) in PMNs; type: cell-based; settings: 1 h; for activation at 5 µmol: in vitro incubation, read-out: increase of cyclic adenosine monophosphate levels in PMNs
Procedure: as §4
Isolated PMNs were incubated with test drugs at 5μ moles for 1 hr at 37° C. in MEM at pH 7.4. The reaction was stopped with 6% trichloroacetic acid. The cyclic-3',5'-adenosine monophosphate levels were determined by the radioimmunoassay of Gilman, Proc. Natl. Acad. Sci. (USA), 67, 305 (1970), using 3H(G)-cyclic-3',5'-adenosine monophosphate (39.8 Cu/m mol). Results were calculated in p mole/10^7 PMNs cells.

[8] = test system: carrageenan induced edema in mouse foot pads; assay: Anti-inflammatory screen (carrageenan induced foot edema); type: in vivo, mice; settings: for Anti-inflammatory Screen: 10 mg/kg × 2 intraperitoneally, mice; for inhibition of the carrageenan induced edema in mouse foot pads: text summary of Table II
Procedure: CF1 male mice (about 30 g) were administered test drugs at 10 mg/kg in 0.05% polysorbate .80-water intraperitoneally 3 hr and 30 min prior to 0.05 ml of 2% carrageenan in 0.9% saline injected into the plantar surface of the right hind foot. Saline injected into the left hind foot served as a base line. After 3 hr, both feet were excised at the tibiotarsal (ankle) joint according to the modified (Roszkowski et al., J. Pharm. Exp. Ther., 179, 114 1971) method of Winter, resulting in an 87 mg net increase in the weight of the control animals' feet.

[9] = pH 7.4, 5 μmoles, in vitro, read-out: PMNs cAMP Level
[10] = pH 7.4, read-out: PMNs cAMP Level

SMILES	Writhing Reflex (CF1 male mice)	Oxidative Phosphorylation Succinate State 3 (liver mitochondria [1])	Oxidative Phosphorylation Succinate State 4 (liver mitochondria [1])	Liver % Free Cathepsin Activity, pH5 (Cathepsin [2])	Oxidative Phosphorylation α Ketoglutarate State 3 (liver mitochondria [3])	Oxidative Phosphorylation α Ketoglutarate State 4 (liver mitochondria [3])	PMNs % Free Cathespin Activity, pH5 (Cathepsin [4])	Liver % Free Acid Phosphatase Activity, pH5 (Acid phosphatase [5])	PMNs % Free Acid Phosphatase Activity, pH5 (Acid phosphatase [6])	activity at 1 µM [7]	LD50 (in vivo)	activity at 5 µmol (cAMP levels in PMNs; [9])	Anti-inflammatory Screen [8]	inhibition of free proteolytic cathepsin activity of liver (Cathepsin [2])	inhibition at 1 µM [7]	activation at 5 µmol (cAMP levels in PMNs; 5 μmoles)	uncoupling with α-ketoglutarate as substrate (liver mitochondria [3])	activity at 5 µmol (cAMP levels in PMNs; [10])	inhibition of the carrageenan induced edema in mouse foot pads [8]	also measured
[BH3-][NH+](C)C [IV, (CH3)2 NH.BH3]	37 % Control	82 ± 4 % Control	119 ± 9 % Control	67 ± 3 % Control	53 ± 16 % Control	67 ± 18 % Control	65 ± 5 % Control	82 ± 3 % Control	82 ± 6 % Control	100 ± 5%	200 mg/kg	80%	66 % Control							both states 3 and 4 respiration with α-ketoglutarate (liver mitochondria [3]): inhibited
C[N+](C)(C)[BH2-]I [IX, (CH3)3 N.BH 2 I]	37 % Control	63 ± 9 % Control	120 ± 12 % Control	14 ± 3 % Control	70 ± 13 % Control	102 ± 16 % Control	40 ± 4 % Control	71 ± 6 % Control	71 ± 5 % Control	67 ± 5%	250 mg/kg	133%	66 % Control	at least 75%	> 30%	33%				
C[NH+](C)[BH2-]C#N [VI, (CH3)2 NH.BH2 CN]	24 % Control	61 ± 5 % Control	126 ± 19 % Control	32 ± 5 % Control	45 ± 12 % Control	128 ± 25 % Control	22 ± 1 % Control	73 ± 4 % Control	89 ± 4 % Control	63 ± 4%	39 mg/kg		49 % Control		> 30%		uncoupling	98%	at least 50%	inhibition of the writhing reflex (CF1 male mice; text summary of Table II): 70%
C[N+](C)([BH2-]C#N)CC[N+](C)(C)[BH2-]C#N [XI, N,N,N^1,N^1 -Tetramethylethylenediamine-bis(cyanoborane)]	76 % Control	122 ± 13 % Control	116 ± 8 % Control	50 ± 7 % Control	106 ± 21 % Control	168 ± 38 % Control	16 ± 5 % Control	80 ± 6 % Control	84 ± 5 % Control	85 ± 4%	200 mg/kg		95 % Control					94%		inhibition of PMN cathepsin activity (Cathepsin [4]): at least 82%
C[N+](C)([BH2-]C(=O)O)CC[N+](C)(C)[BH2-]C(=O)O [XII, N,N,N^1,N^1 -Tetramethylethylenediamine-bis(carboxyborane)]	54 % Control	57 ± 16 % Control	80 ± 11 % Control	23 ± 6 % Control	48 ± 30 % Control	122 ± 15 % Control	52 ± 4 % Control	69 ± 5 % Control	84 ± 4 % Control	60 ± 6%	> 1000 mg/kg	155%	58 % Control	at least 75%	> 30%	55%	uncoupling		at least 40%	both states 3 and 4 respiration with succinate (liver mitochondria [1]): inhibited
